The record followed here is publication PMC4599313 (Journal of the American Chemical Society, 2015).

Holding throughout (type): biochemical
The target of one test is T1, PglC (Campylobacter jejuni, UniProt Q0P9D0).
T1 sequence (Q0P9D0 1-200): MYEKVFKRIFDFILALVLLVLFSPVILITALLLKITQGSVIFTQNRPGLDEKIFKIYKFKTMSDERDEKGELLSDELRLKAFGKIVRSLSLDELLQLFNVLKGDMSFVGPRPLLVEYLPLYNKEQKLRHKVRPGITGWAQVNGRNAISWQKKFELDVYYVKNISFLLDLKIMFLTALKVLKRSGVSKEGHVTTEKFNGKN
The test is described as follows: capillary electrophoresis of APTS-labelled monosaccharide. To be noted: Und-P acceptor; 60 min; PglC 10 nM.

In another test the target is T2, PglH (Campylobacter jejuni, UniProt Q0P9C5).
T2 sequence (Q0P9C5 1-359): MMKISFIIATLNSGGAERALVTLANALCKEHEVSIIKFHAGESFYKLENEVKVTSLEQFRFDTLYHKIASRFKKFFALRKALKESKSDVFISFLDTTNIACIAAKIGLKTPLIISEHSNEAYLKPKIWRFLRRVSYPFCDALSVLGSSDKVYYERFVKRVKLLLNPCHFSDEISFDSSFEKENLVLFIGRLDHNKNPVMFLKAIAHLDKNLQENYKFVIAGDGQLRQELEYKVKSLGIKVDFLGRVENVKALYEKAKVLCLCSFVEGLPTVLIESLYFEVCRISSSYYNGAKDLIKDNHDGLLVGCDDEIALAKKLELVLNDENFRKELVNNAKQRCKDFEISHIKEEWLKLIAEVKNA
The test is described as follows: normal-phase HPLC of [3H]-labelled glycan. To be noted: [3H]-labelled Und-PP-diNAcBac-GalNAc-GalNAz acceptor.

The target of the next test is T3, PglJ (Campylobacter jejuni, UniProt Q0P9C7).
T3 sequence (Q0P9C7 1-365): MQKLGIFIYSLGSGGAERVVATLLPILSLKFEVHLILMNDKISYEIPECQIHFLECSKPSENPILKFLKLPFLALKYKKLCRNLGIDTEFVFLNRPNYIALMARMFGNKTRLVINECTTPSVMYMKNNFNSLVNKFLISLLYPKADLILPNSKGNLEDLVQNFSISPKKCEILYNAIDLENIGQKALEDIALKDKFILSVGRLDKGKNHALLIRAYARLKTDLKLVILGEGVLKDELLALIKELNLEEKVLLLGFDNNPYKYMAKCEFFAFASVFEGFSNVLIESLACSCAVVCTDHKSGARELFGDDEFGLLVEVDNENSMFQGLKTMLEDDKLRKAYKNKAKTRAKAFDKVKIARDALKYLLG
Briefly: HPLC and scintillation counting of [3H]-labelled product. To be noted: Und-PP-diNAcBac-[3H]-GalNAc acceptor; 100 uM UDP-sugar; PglJ 90 nM.

Each structure is given as a SMILES string.

Turning to `CC(=O)N[C@H]1[C@@H](OP(=O)(O)OP(=O)(O)OC[C@H]2O[C@@H](n3ccc(=O)[nH]c3=O)[C@H](O)[C@@H]2O)O[C@H](C)[C@@H](NC(C)=O)[C@@H]1O` [UDP-diNAcBac], at PglC, the “capillary electrophoresis of APTS-labelled monosaccharide” value is “the conversion was low for both, UDP-diNAcBac and UDP-2-NAc-4-NAzBac”. Turning to `CC(=O)N[C@H]1[C@@H](OP(=O)(O)OP(=O)(O)OC[C@H]2O[C@@H](n3ccc(=O)[nH]c3=O)[C@H](O)[C@@H]2O)O[C@H](CO)[C@H](O)[C@@H]1O` [UDP-GalNAc], the “normal-phase HPLC of [3H]-labelled glycan” value on PglH was “the tolerance of PglH was tested by incubating enzyme with UDP-GalNAc and UDP-GalNAz”. Take `[N-]=[N+]=NCC(=O)N[C@H]1[C@@H](OP(=O)(O)OP(=O)(O)OC[C@H]2O[C@@H](n3ccc(=O)[nH]c3=O)[C@H](O)[C@@H]2O)O[C@H](CO)[C@H](O)[C@@H]1O` [UDP-GalNAz]: the “HPLC and scintillation counting of [3H]-labelled product” value on PglJ is recorded as “PglJ efficiently incorporates an azido sugar into the Und-PP-trisaccharide”.
